Patent publication US20070032410A1, “COMPOSITIONS AND METHODS FOR THE TREATMENT OF PSYCHIATRIC DISORDERS” (Atossa Healthcare, Inc., priority 2000, published 2007)
*1 amine or outer side, *2 acyl side, *3 side chain or, on linkers, in order; H or OH if unused. Where a SMILES comes first, the peptide text is derived from it. Bridges are numbered along the chain shown (N, C = ends). X1 = O=C(CCC[*:2])[*:1]

Test system: tracheal/bronchial epithelial cell membrane inserts (EpiAirway)
Assay: Permeation of carbetocin formulations across tracheal/bronchial epithelial cell membrane inserts (EIA of basolateral media)
Assay type: in vitro ADME
Details: human, 1 h
Procedure: Permeation studies on varying formulations of carbetocin were completed using tracheal/bronchial epithelial cell membrane inserts. Samples were evaluated for appearance, color, clarity, pH, osmolality, cell viability using an MTT assay, cytotoxicity using an LDH assay, and transepithelial resistance and permeation.
Tracheal/bronchial epithelial cell membrane inserts (EpiAirway, MatTek Corp., Ashland, Mass.) were received the day before the experiment. Each tissue insert was placed in a well of a 6 well plate which contained 0.9 ml of serum free media and cultured at 37° C. for 24 hours to allow the tissues to equilibrate. The day of the experiment, transepithelial electrical resistance measurements were taken for each insert using a Tissue Resistance Measurement Chamber connected to an Epithelial Voltohmeter (World Precision Instruments, Inc., Sarasota, Fla.).
After the background transepithelial electrical resistance was determined, 1 ml of media was placed in the bottom of each well in a six well plate. The inserts were inverted and drained and placed into new wells with fresh media. For samples 1-12, 100 μl of the formulation to be tested was then added to an insert. For samples 13-92, 25 μl of the formulation was added to each insert. The inserts were placed in a shaking incubator at 100 rpm and 37° C. for one hour. The tissue inserts were then removed from the incubator. […]

permeation: less than 1.0%
Structure (SMILES): CC[C@H](C)[C@@H]1NC(=O)[C@H](Cc2ccc(OC)cc2)NC(=O)CCCSC[C@@H](C(=O)N2CCC[C@H]2C(=O)N[C@@H](CC(C)C)C(=O)NCC(N)=O)NC(=O)[C@H](CC(N)=O)NC(=O)[C@H](CCC(N)=O)NC1=O [carbetocin, 1-butanoic acid-2-(O-methyl-L-tyrosine)-1-carbaoxytocin] (Y(Me)IQNCPLG-NH2; linker N-5 via X1)
